pIC50, pKi: −log10 of the molar value.
Tests used:
[1] = molecular target: T1, Peptidyl-prolyl cis-trans isomerase FKBP1A (Homo sapiens, UniProt P62942); experiment: Compound was tested for inhibitory activity against FK506 binding protein 12 (FKBP12); conditions: read-out: Ki app
[2] = Immunosuppressant-like activity in an in vitro splenocyte mitogenesis assay at concentration up to 10 uM; type: functional
[3] = Immunosuppressant-like activity in an in vitro splenocyte mitogenesis assay at concentration up to 10 uM; ND means not detected; type: functional
[4] = molecular target: T1, Peptidyl-prolyl cis-trans isomerase FKBP1A; experiment: Compound was tested for inhibitory activity against FK506 binding protein 12 (FKBP12); Value ranges from 190-900 nM; conditions: read-out: Ki app

T1 sequence (P62942 whole entry): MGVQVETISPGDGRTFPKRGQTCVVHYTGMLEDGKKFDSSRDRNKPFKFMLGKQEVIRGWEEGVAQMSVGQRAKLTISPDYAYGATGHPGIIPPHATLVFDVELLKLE

| SMILES | pKi [1] | IC50 [3] | further results |
| --- | --- | --- | --- |
| C=CC[C@@H]1/C=C(\C)C[C@H](C)C(=O)OCC(C)(C)C(=O)C(=O)N2CCCC[C@H]2C(=O)O[C@H](CCc2ccccc2)[C@H](C)COC1=O | 5.22 | – | – |
| C=CC[C@@H]1/C=C(\C)C[C@H](C)C(=O)OCCCC(C)(C)C(=O)C(=O)N2CCCC[C@H]2C(=O)O[C@H](CCc2ccccc2)[C@H](C)COC1=O | < 5.30 | – | – |
| C=CC[C@@H]1/C=C(\C)C[C@H](C)C[C@H](OC)[C@H]2O[C@@](O)(C(=O)C(=O)N3CCCC[C@H]3C(=O)O[C@H](/C(C)=C/[C@@H]3CC[C@@H](O)[C@H](OC)C3)[C@H](C)[C@@H](O)CC1=O)[C@H](C)C[C@@H]2OC [TACROLIMUS ANHYDROUS] | – | – | pIC50 [2]: 9.00 |
| C=CC[C@@H]1/C=C(\C)C[C@H](C)C(=O)OCCCC(C)(C)C(=O)C(=O)N2CCCC[C@H]2C(=O)OCCCOC1=O | 6.40 | – | – |
| CCC(C)(C)C(=O)C(=O)N1CCCC[C@H]1C(=O)O[C@H](CCc1ccccc1)c1cccc(C(=O)c2ccccc2)c1 | 8.30 | Not detected | – |
| CCC(C)(C)C(=O)C(=O)N1CCCC[C@H]1C(=O)O[C@H](CCc1ccccc1)C(C)(C)/C=C/C(=O)c1ccccc1 | – | Not detected | pKi [4]: 6.72 |
| CC1(C)COC(=O)CCCCC(=O)/C=C/C(C)(C)[C@@H](CCc2ccccc2)OC(=O)[C@@H]2CCCCN2C(=O)C1=O | 6.76 | – | – |
| CC1(C)COC(=O)CCCCC(=O)CCC(C)(C)[C@@H](CCc2ccccc2)OC(=O)[C@@H]2CCCCN2C(=O)C1=O | 7.60 | – | – |
| C=CCN(CC=C)C(=O)c1cccc([C@@H](CCc2ccccc2)OC(=O)[C@@H]2CCCCN2C(=O)C(=O)C(C)(C)CC)c1 | 8.30 | Not detected | – |
| C=CC[C@@H]1/C=C(\C)C[C@H](C)C(=O)OCC(C)(C)C(=O)C(=O)N2CCCC[C@H]2C(=O)OCCCOC1=O | 6.89 | – | – |
| CCCC(CCC)C(=O)/C=C/C(C)(C)[C@@H](CCc1ccccc1)OC(=O)[C@@H]1CCCCN1C(=O)C(=O)C(C)(C)CC | – | Not detected | pKi [4]: 6.72 |
| CC1(C)COC(=O)CCCCCCCCC(=O)c2cccc(c2)C(CCc2ccccc2)OC(=O)[C@@H]2CCCCN2C(=O)C1=O (stereo partly drawn) | 7.70 | – | – |
| CCC(C)(C)C(=O)C(=O)N1CCCC[C@H]1C(=O)O[C@H](CCc1ccccc1)C(C)(C)/C=C/C(=O)C1CCCCC1 | 6.47 | Not detected | – |

Reference: ChEMBL document CHEMBL1127991, “Design, synthesis and evaluation of dual domain FKBP ligands” (Bioorg Med Chem Lett, 1994)
